EPA's ToxRefDB 2

What was measured:
rat [1] = conditions: Combined chronic toxicity/carcinogenicity, sprague dawley, Oral, Feed, dose end: 104 week, group: systemic
dog [2] = conditions: Chronic toxicity; beagle; Oral; Feed; dose end: 52 week; group: systemic; systemic / in life observation / body weight / body weight gain + systemic / organ weight / heart / absolute + systemic / organ weight / …
rat [3] = conditions: Subchronic oral toxicity in rodents, sprague dawley, Feed, dose end: 90 day, group: systemic
rat [4] = conditions: Subchronic oral toxicity in rodents, sprague dawley, Feed, dose end: 90 day, group: systemic, systemic / hematology / erythrocyte (rbc) count differential / erythrocyte (rbc) + systemic / hematology / hematocrit (hct) / hematocrit (…
mouse [5] = conditions: Subchronic oral toxicity in rodents, cd1, Feed, dose end: 90 day, group: systemic
dog [6] = conditions: Chronic toxicity, beagle, Oral, Capsule, dose end: 52 week, group: systemic
rat [7] = conditions: Combined chronic toxicity/carcinogenicity, other, Oral, Feed, dose end: 104 week, group: systemic
mouse [8] = conditions: Carcinogenicity; cd1; Oral; Feed; dose end: 18 month; group: systemic; systemic / hematology / erythrocyte (rbc) count differential / erythrocyte (rbc) + systemic / hematology / heinz body / heinz body + …
rat [9] = conditions: Multigenerational reproductive toxicity study, sprague dawley, Oral, Feed, dose end: 2 generation
[10] = systemic / in life observation / body weight / body weight + systemic / clinical chemistry / phosphorus / phosphate + systemic / clinical …
[11] = systemic / hematology / erythrocyte (rbc) count differential / erythrocyte (rbc) + systemic / hematology / hemoglobin (hgb) / hemoglobin (…
[12] = systemic / hematology / methemoglobin / methemoglobin + systemic / hematology / reticulocyte / reticulocyte + systemic / pathology …
[13] = systemic / organ weight / spleen / absolute + systemic / organ weight / spleen / relative to body weight + systemic / hematology / …
[14] = systemic / hematology / jolly bodies / jolly bodies + systemic / hematology / mean corpuscular hemoglobin concentration (mchc) / mean …
[15] = systemic / hematology / mean corpuscular hemoglobin concentration (mchc) / mean corpuscular hemoglobin concentration (mchc)
[16] = systemic / organ weight / spleen / absolute + systemic / urinalysis / volume / volume
[17] = group: offspring, systemic / organ weight / spleen / absolute + systemic / organ weight / spleen / relative to body weight
[18] = group: offspring, systemic / organ weight / spleen / absolute + systemic / organ weight / spleen / relative to body weight + systemic / organ weight / liver…
[19] = group: parental, systemic / organ weight / spleen / absolute + systemic / organ weight / spleen / relative to body weight
[20] = group: parental, systemic / organ weight / spleen / relative to body weight + systemic / organ weight / spleen / absolute
[21] = group: reproductive, reproductive / offspring survival early / litter size / litter size

## O=C1CC=C([O-])N=N1.[K+] [Maleic hydrazide, potassium salt]
Rat [1]; systemic / in life observation / body weight / body weight
  LOAEL: 500 mg/kg/day
Rat [1]; [10]
  LEL: 500 mg/kg/day
  NOAEL: 25 mg/kg/day
Rat [1]; systemic / organ weight / kidney / absolute + systemic / organ weight / liver / absolute + systemic / in life observation / body weight / …
  NEL: 25 mg/kg/day
Dog [2]
  LEL: 87 mg/kg/day
  LOAEL: 87 mg/kg/day
  NEL: 25 mg/kg/day
  NOAEL: 25 mg/kg/day

## O=C(NC(=O)c1c(F)cccc1F)Nc1ccc(OC(F)(F)C(F)OC(F)(F)F)c(Cl)c1 (centres undefined) [Novaluron]
Rat [3]; [11]
  LEL: 4.7 mg/kg/day
  NEL: < 4.7 mg/kg/day
Rat [3]; [12]
  LOAEL: 818 mg/kg/day
  NOAEL: 8.3 mg/kg/day
Rat [4]
  LEL: 8.64 mg/kg/day
  LOAEL: 8.64 mg/kg/day
  NEL: 4.38 mg/kg/day
  NOAEL: 4.38 mg/kg/day
Mouse [5]; systemic / hematology / erythrocyte (rbc) count differential / erythrocyte (rbc) + systemic / hematology / hematocrit (hct) / hematocrit (…
  LEL: 15.2 mg/kg/day
Mouse [5]; systemic / organ weight / spleen / absolute + systemic / organ weight / spleen / relative to body weight
  LOAEL: 136 mg/kg/day
Mouse [5]; [13]
  NEL: 4.7 mg/kg/day
  NOAEL: 15.2 mg/kg/day
Dog [6]; [14]
  LOAEL: 100 mg/kg/day
  NOAEL: 10 mg/kg/day
Dog [6]; [15]
  LEL: 10 mg/kg/day
  NEL: < 10 mg/kg/day
Rat [7]; systemic / in life observation / clinical signs / anemia
  LOAEL: 30.6 mg/kg/day
Rat [7]; systemic / in life observation / clinical signs / anemia + systemic / hematology / erythrocyte (rbc) count differential / erythrocyte (rbc…
  NOAEL: 1.1 mg/kg/day
Rat [7]; [16]
  LEL: 1.4 mg/kg/day
  NEL: < 1.4 mg/kg/day
Mouse [8]
  LEL: 53.4 mg/kg/day
  LOAEL: 53.4 mg/kg/day
  NEL: 3.6 mg/kg/day
  NOAEL: 3.6 mg/kg/day
Rat [9]; [17]
  LOAEL: 74.2 mg/kg/day
  NOAEL: < 74.2 mg/kg/day
Rat [9]; [18]
  LEL: 74.2 mg/kg/day
  NEL: < 74.2 mg/kg/day
Rat [9]; [19]
  LOAEL: 74.2 mg/kg/day
  NOAEL: < 74.2 mg/kg/day
Rat [9]; [20]
  LEL: 74.2 mg/kg/day
  NEL: < 74.2 mg/kg/day
Rat [9]; [21]
  LEL: 895 mg/kg/day
  LOAEL: > 895 mg/kg/day
  NEL: 298 mg/kg/day
  NOAEL: ≥ 895 mg/kg/day
